According to the NIST ThermoML archive (doi:10.1021/acs.jced.5b00944):
Numbers after ± are expanded uncertainties.

Test: xn = mol fraction of the nth substance listed
Conditions: for viscosity / speed of sound / mass density: 100 kPa, Liquid; for viscosity: Capillary tube (Ostwald / Ubbelohde) method; for speed of sound: Sing-around technique in a fixed-path interferometer; for mass density: Vibrating tube method; for surface tension liquid-gas: Capillary rise

CCCC[N+]1(C)CCCC1.N#CN=C=[N-] [1-butyl-1-methylpyrrolidinium dicyanamide] + O
Conditions	mass density [kg/m3]	speed of sound [m/s]	surface tension liquid-gas [mN/m]	viscosity [mPa·s]
287.92 K, x2 = 0.0329	–	–	–	46.3 ± 0.7
287.92 K, x2 = 0.0994	–	–	–	44.7 ± 0.7
287.94 K, x2 = 0.2615	–	–	–	37.1 ± 0.5
287.94 K, x2 = 0.4463	–	–	–	28.9 ± 0.4
287.95 K, x2 = 0.6509	–	–	–	19.6 ± 0.3
287.95 K, x2 = 0.751	–	–	–	14.4 ± 0.2
287.97 K, x2 = 0.9	–	–	–	5.51 ± 0.07
288.15 K, x2 = 0	1019.11 ± 4.1	1834.4 ± 2.2	–	–
288.15 K, x2 = 0.0329	1019.02 ± 4.1	1834.2 ± 2.2	–	–
288.15 K, x2 = 0.0993	1018.74 ± 4	1833.5 ± 2.1	–	–
288.15 K, x2 = 0.2615	1018.26 ± 4	1832.2 ± 1.8	–	–
288.15 K, x2 = 0.4463	1017.61 ± 4	1832.1 ± 1.5	–	–
288.15 K, x2 = 0.6509	1016.78 ± 4	1831.3 ± 1.3	–	–
288.15 K, x2 = 0.751	1016.44 ± 4	1825 ± 1.1	–	–
288.15 K, x2 = 0.9	1012.13 ± 4	1752.9 ± 1.1	–	–
288.3 K, x2 = 0.0329	–	–	51.9 ± 1.3	–
288.8 K, x2 = 0.0994	–	–	52.4 ± 1.3	–
288.8 K, x2 = 0.751	–	–	54.3 ± 1.2	–
288.8 K, x2 = 0.9	–	–	54.3 ± 1.2	–
288.9 K, x2 = 0.6509	–	–	50.6 ± 1.2	–
289 K, x2 = 0.4463	–	–	51.8 ± 1.2	–
289.1 K, x2 = 0.2615	–	–	52 ± 1.3	–
297.5 K, x2 = 0.0329	–	–	51.4 ± 1.3	–
297.6 K, x2 = 0.9	–	–	53.7 ± 1.2	–
297.7 K, x2 = 0.4463	–	–	51.5 ± 1.2	–
297.8 K, x2 = 0.0994	–	–	52 ± 1.3	–
297.8 K, x2 = 0.751	–	–	53.3 ± 1.2	–
297.9 K, x2 = 0.2615	–	–	51.6 ± 1.3	–
297.9 K, x2 = 0.6509	–	–	50.1 ± 1.2	–
297.93 K, x2 = 0.0329	–	–	–	31.9 ± 0.5
297.93 K, x2 = 0.4463	–	–	–	20 ± 0.3
297.94 K, x2 = 0.2615	–	–	–	26.1 ± 0.4
297.95 K, x2 = 0.0994	–	–	–	31.1 ± 0.5
297.95 K, x2 = 0.751	–	–	–	10 ± 0.1
297.96 K, x2 = 0.6509	–	–	–	13.4 ± 0.2
297.96 K, x2 = 0.9	–	–	–	3.93 ± 0.05
298.15 K, x2 = 0	1013.48 ± 4.1	1809.6 ± 2.2	–	–
298.15 K, x2 = 0.0329	1013.44 ± 4.1	1809.6 ± 2.2	–	–
298.15 K, x2 = 0.0993	1013.07 ± 4	1808.5 ± 2.1	–	–
298.15 K, x2 = 0.2615	1012.53 ± 4	1807.6 ± 1.8	–	–
298.15 K, x2 = 0.4463	1011.78 ± 4	1808.1 ± 1.5	–	–
298.15 K, x2 = 0.6509	1010.69 ± 4	1808.3 ± 1.2	–	–
298.15 K, x2 = 0.751	1010.21 ± 4	1803.2 ± 1.1	–	–
298.15 K, x2 = 0.9	1006.14 ± 4	1740.1 ± 1	–	–
305.2 K, x2 = 0.2615	–	–	51 ± 1.3	–
305.5 K, x2 = 0.0994	–	–	51.7 ± 1.3	–
305.5 K, x2 = 0.751	–	–	52.6 ± 1.2	–
305.6 K, x2 = 0.4463	–	–	51 ± 1.2	–
305.6 K, x2 = 0.9	–	–	52.9 ± 1.2	–
306 K, x2 = 0.0329	–	–	50.8 ± 1.3	–
306 K, x2 = 0.6509	–	–	49.8 ± 1.2	–
307.99 K, x2 = 0.4463	–	–	–	14.6 ± 0.2
308 K, x2 = 0.0329	–	–	–	23.1 ± 0.4
308.01 K, x2 = 0.0994	–	–	–	22.5 ± 0.4
308.02 K, x2 = 0.751	–	–	–	7.24 ± 0.09
308.02 K, x2 = 0.9	–	–	–	2.98 ± 0.04
308.03 K, x2 = 0.2615	–	–	–	19 ± 0.3
308.03 K, x2 = 0.6509	–	–	–	9.74 ± 0.13
308.15 K, x2 = 0	1007.82 ± 4.1	1785.2 ± 2.2	–	–
308.15 K, x2 = 0.0329	1007.7 ± 4.1	1785.2 ± 2.2	–	–
308.15 K, x2 = 0.0993	1007.45 ± 4	1784.4 ± 2.1	–	–
308.15 K, x2 = 0.2615	1006.85 ± 4	1783.8 ± 1.8	–	–
308.15 K, x2 = 0.4463	1005.97 ± 4	1784.8 ± 1.5	–	–
308.15 K, x2 = 0.6509	1004.63 ± 4	1785.9 ± 1.2	–	–
308.15 K, x2 = 0.751	1003.96 ± 4	1781.8 ± 1.1	–	–
308.15 K, x2 = 0.9	999.99 ± 4	1726.6 ± 1	–	–
312.9 K, x2 = 0.2615	–	–	50.6 ± 1.3	–
313.2 K, x2 = 0.751	–	–	52 ± 1.2	–
313.5 K, x2 = 0.4463	–	–	50.4 ± 1.2	–
313.8 K, x2 = 0.0994	–	–	51.1 ± 1.3	–
313.8 K, x2 = 0.6509	–	–	49.3 ± 1.2	–
313.9 K, x2 = 0.0329	–	–	50.3 ± 1.3	–
316.2 K, x2 = 0.9	–	–	52.2 ± 1.2	–
318.02 K, x2 = 0.0329	–	–	–	17.4 ± 0.3
318.03 K, x2 = 0.4463	–	–	–	11 ± 0.2
318.04 K, x2 = 0.751	–	–	–	5.47 ± 0.07
318.05 K, x2 = 0.2615	–	–	–	14.4 ± 0.2
318.05 K, x2 = 0.9	–	–	–	2.33 ± 0.03
318.06 K, x2 = 0.0994	–	–	–	16.9 ± 0.3
318.06 K, x2 = 0.6509	–	–	–	7.37 ± 0.09
318.15 K, x2 = 0	1002.33 ± 4.1	1761 ± 2.2	–	–
318.15 K, x2 = 0.0329	1002.21 ± 4.1	1760.7 ± 2.2	–	–
318.15 K, x2 = 0.0993	1001.88 ± 4	1760 ± 2.1	–	–
318.15 K, x2 = 0.2615	1001.22 ± 4	1759.7 ± 1.8	–	–
318.15 K, x2 = 0.4463	1000.21 ± 4	1761.1 ± 1.5	–	–
318.15 K, x2 = 0.6509	998.57 ± 4	1762.5 ± 1.2	–	–
318.15 K, x2 = 0.751	997.71 ± 4	1759.7 ± 1.1	–	–
318.15 K, x2 = 0.9	993.7 ± 4	1711.2 ± 1	–	–
323.9 K, x2 = 0.0994	–	–	50.3 ± 1.3	–
324.1 K, x2 = 0.2615	–	–	49.6 ± 1.3	–
324.2 K, x2 = 0.751	–	–	51.1 ± 1.2	–
324.4 K, x2 = 0.9	–	–	51.7 ± 1.2	–
324.5 K, x2 = 0.4463	–	–	49.6 ± 1.2	–
324.6 K, x2 = 0.6509	–	–	48.9 ± 1.2	–
324.9 K, x2 = 0.0329	–	–	49.5 ± 1.3	–
333.04 K, x2 = 0.0329	–	–	–	12.1 ± 0.2
333.07 K, x2 = 0.4463	–	–	–	7.72 ± 0.11
333.07 K, x2 = 0.751	–	–	–	3.81 ± 0.05
333.07 K, x2 = 0.9	–	–	–	1.68 ± 0.02
333.08 K, x2 = 0.2615	–	–	–	10.1 ± 0.2
333.09 K, x2 = 0.6509	–	–	–	5.14 ± 0.07
333.1 K, x2 = 0.0994	–	–	–	11.7 ± 0.2
333.15 K, x2 = 0	994.14 ± 4.1	1724.7 ± 2.2	–	–
333.15 K, x2 = 0.0329	993.99 ± 4.1	1724.4 ± 2.2	–	–
333.15 K, x2 = 0.0993	993.64 ± 4	1723.9 ± 2.1	–	–
333.15 K, x2 = 0.2615	992.88 ± 4	1724 ± 1.8	–	–
333.15 K, x2 = 0.4463	991.65 ± 4	1725.6 ± 1.5	–	–
333.15 K, x2 = 0.6509	989.51 ± 4	1727 ± 1.2	–	–
333.15 K, x2 = 0.751	988.31 ± 4	1724.7 ± 1.1	–	–
333.15 K, x2 = 0.9	983.98 ± 4	1684.9 ± 1	–	–
